Earlier results as cited in PubChem BioAssay AID1259409 (Chemical Carcinogenesis Research Information System (CCRIS), 2018).

System: rodent chemically induced tumor inhibition, incidence and multiplicity
Experiment: CCRIS tumor inhibitor studies
Details: Route [Inhibitor]: ORAL

## O=C1O[C@H]([C@@H](O)CO)C(O)=C1O
Carcinogen: 1,2-DIMETHYLHYDRAZINE DICHLORIDE, 306-37-6, Dose [Inhibitor]: 0, 0.3% SOLUTION IN DRINKING WATER BEGINNING 1 WK POST CARCINOGEN TREATMENT AND AND CONTINUING FOR DURATION OF STUDY (ST, Species: MOUSE, Strain/Sex: CBA/FEMALE, Target Tissue: Type of Lesion: UTERUS: SARCOMA, Dose [Carcinogen]: 8 MG/KG 1/WK FOR 8 WK, Promoter: ESTRADIOL DIPROPIONATE, 133-38-2
  tumour outcome (control, treated, inhibition, significance): 25/40 (63%), 14/40 (35%), 44%, p<0.001
Carcinogen: 1,2-DIMETHYLHYDRAZINE DICHLORIDE, 306-37-6, Dose [Inhibitor]: 0, 0.3% SOLUTION IN DRINKING WATER BEGINNING 1 WK POST CARCINOGEN TREATMENT AND CONTINUING FOR DURATION OF STUDY (STUDY, Species: MOUSE, Strain/Sex: CBA/FEMALE, Target Tissue: Type of Lesion: UTERUS: SARCOMA, Dose [Carcinogen]: 8 MG/KG 1/WK FOR 8 WK, Promoter: ESTRADIOL DIPROPIONATE, 133-38-2
  tumour outcome (control, treated, inhibition, significance): 25/40 (63%), 24/32 (75%), -19%, not calculated
Carcinogen: 1,2-DIMETHYLHYDRAZINE-DIHYDROCHLORIDE, 306-37-6, Dose [Inhibitor]: 25 MG/KG/D IN DIET STARTING AT TIME OF CARCINOGEN TREATMENT AND CONTINUING FOR 35 WK (STUDY DURATION: 35 WK), Species: MOUSE, Strain/Sex: CF-1/FEMALE, Target Tissue: Type of Lesion: LARGE BOWEL: GLANDULAR TUMORS, Dose [Carcinogen]: 20 MG/KG 1/WK FOR 24 WK, Promoter: NONE USED
  tumour outcome (control, treated, inhibition, significance): 18/20 (90%), 19/22 (86%), 4%, not significant
Carcinogen: 1,2-DIMETHYLHYDRAZINE-DIHYDROCHLORIDE, 306-37-6, Dose [Inhibitor]: 50 MG/KG/D IN DIET STARTING AT TIME OF CARCINOGEN TREATMENT AND CONTINUING FOR 35 WK (STUDY DURATION: 35 WK), Species: MOUSE, Strain/Sex: CF-1/FEMALE, Target Tissue: Type of Lesion: LARGE BOWEL: GLANDULAR TUMORS, Dose [Carcinogen]: 20 MG/KG, 1/WK FOR 24 WK, Promoter: NONE USED
  tumour outcome (control, treated, inhibition, significance): 18/20 (90%), 20/20 (100%), -11%, not significant
Carcinogen: 1,2-DIMETHYLHYDRAZINE-DIHYDROCHLORIDE, 306-37-6, Dose [Inhibitor]: 100 MG/KG/DAY IN DIET STARTING AT TIME OF CARCINOGEN TREATMENT AND CONTINUING FOR 35 WK (STUDY DURATION: 35 WK), Species: MOUSE, Strain/Sex: CF-1/FEMALE, Target Tissue: Type of Lesion: LARGE BOWEL: GLANDULAR TUMORS, Dose [Carcinogen]: 20 MG/KG 1/WK FOR 24 WK, Promoter: NONE USED
  tumour outcome (control, treated, inhibition, significance): 18/20 (90%), 16/23 (70%), 22%, not significant
Carcinogen: 1,2-DIMETHYLHYDRAZINE-DIHYDROCHLORIDE, 306-37-6, Dose [Inhibitor]: 200 MG/KG/DAY IN DIET STARTING AT TIME OF CARCINOGEN TREATMENT AND CONTINUING FOR 35 WK (STUDY DURATION: 35 WK), Species: MOUSE, Strain/Sex: CF-1/FEMALE, Target Tissue: Type of Lesion: LARGE BOWEL: GLANDULAR TUMORS, Dose [Carcinogen]: 20 MG/KG 1/WK FOR 24 WK, Promoter: NONE USED
  tumour outcome (control, treated, inhibition, significance): 18/20 (90%), 19/23 (83%), 8%, not significant
Carcinogen: 1,2-DIMETHYLHYDRAZINE, 540-73-8, Dose [Inhibitor]: 0, 0.02% IN DIET FOR 14 WK BEGINNING 3 D PRIOR TO CARCINOGEN TREATMENT (STUDY DURATION: 26 WK), Species: RAT, Strain/Sex: SPRAGUE-DAWLEY/MALE, Target Tissue: Type of Lesion: INTESTINE: CARCINOMA, Dose [Carcinogen]: 20 MG/KG BW 1/WK FOR 12 WK, Promoter: NONE USED
  tumour outcome (control, treated, inhibition, significance): 23/28 (82%), 12/18 (67%), 18%, not significant
Carcinogen: 1,2-DIMETHYLHYDRAZINE, 540-73-8, Dose [Inhibitor]: 0, 5% IN DIET BEGINNING 1 WK POST LAST CARCINOGEN DOSE AND CONTINUING FOR 36 WK (STUDY DURATION: 40 WK), Species: RAT, Strain/Sex: F344/MALE, Target Tissue: Type of Lesion: COLON: ADENOMA, Dose [Carcinogen]: 20 MG/KG 1/WK FOR 4 WK, Promoter: NONE USED
  tumour outcome (control, treated, inhibition, significance): 1/20 (5%), 6/20 (30%), -500%, p<0.05
Carcinogen: 1,2-DIMETHYLHYDRAZINE, 540-73-8, Dose [Inhibitor]: 0, 5% IN DIET BEGINNING 1 WK POST LAST CARCINOGEN DOSE AND CONTINUING FOR 36 WK (STUDY DURATION: 40 WK), Species: RAT, Strain/Sex: F344/MALE, Target Tissue: Type of Lesion: COLON: CARCINOMA, Dose [Carcinogen]: 20 MG/KG 1/WK FOR 4 WK, Promoter: NONE USED
  tumour outcome (control, treated, inhibition, significance): 6/20 (30%), 7/20 (35%), -17%, not calculated
Carcinogen: 1,2-DIMETHYLHYDRAZINE, 540-73-8, Dose [Inhibitor]: 0, 10 G/L IN DRINKING WATER FOR DURATION OF STUDY BEGINNING 7 D PRIOR TO CARCINOGEN TREATMENT (STUDY DURATION: 8 MO), Species: RAT, Strain/Sex: BD6/MALE, Target Tissue: Type of Lesion: INTESTINE: TUMOR, Dose [Carcinogen]: 20 MG/KG BW 1/WK FOR 20 WK, Promoter: NONE USED
  tumour outcome (control, treated, inhibition, significance): 100%, 100%, 0%, not significant
Carcinogen: 1,2-DIMETHYLHYDRAZINE, 540-73-8, Dose [Inhibitor]: 0.25% IN 20% FAT DIET DAILY STARTING 2 WK BEFORE CARCINOGEN TREATMENT AND CONTINUING FOR DURATION OF STUDY (STUDY DURATI, Species: RAT, Strain/Sex: F344/FEMALE, Target Tissue: Type of Lesion: COLON: ADENOMA, ADENOCARCINOMA, Dose [Carcinogen]: 150 MG/KG BW IN 0.9% SALINE ADJUSTED TO PH 6.8 ONCE, Promoter: NONE USED
  tumour outcome (control, treated, inhibition, significance): 26%, 0%, 100%, p<0.05
Carcinogen: 1,2-DIMETHYLHYDRAZINE, 540-73-8, Dose [Inhibitor]: 0.25% IN 20% FAT DIET DAILY STARTING 2 WK BEFORE CARCINOGEN TREATMENT AND CONTINUING FOR DURATION OF STUDY (STUDY DURATI, Species: RAT, Strain/Sex: F344/FEMALE, Target Tissue: Type of Lesion: KIDNEY: NEPHROBLASTOMA, ADENOCARCINOMA, Dose [Carcinogen]: 150 MG/KG BW IN 0.9% SALINE ADJUSTED TO PH 6.8 ONCE, Promoter: NONE USED
  tumour outcome (control, treated, inhibition, significance): 22%, 4%, 82%, p<0.05
Carcinogen: 1,2-DIMETHYLHYDRAZINE, 540-73-8, Dose [Inhibitor]: 0.3% IN DRINKING WATER BEGINNING AFTER LAST CARCINOGEN DOSE AND CONTINUING FOR DURATION OF STUDY (STUDY DURATION: 55 WK), Species: MOUSE, Strain/Sex: CBA/FEMALE, Target Tissue: Type of Lesion: UTERUS (ENDOMETRIUM): STROMAL SARCOMA, Dose [Carcinogen]: 8 MG/KG BW IN WATER 1/WK FOR 8 WK, Promoter: ESTRADIOL PROPIONATE, 113-38-2
  tumour outcome (control, treated, inhibition, significance): 13/40 (33%), 13/30 (43%), -33%, not calculated
